Patent US9872849B2, “Diterpenoid membranolide compounds having anti-leishmania activity and uses thereof” (UNIVERSITY OF SOUTH FLORIDA, priority 2014, dated 2018)
Like-named read-outs stand apart in the source and are kept apart here.

Assays:
[1] = test system: L. donovani axenic amastigotes; assay: microbe, parasite or virus in culture; type: cell-based, Leishmania donovani
Protocol: (§1) Leishmaniasis efficacy was tested against L. donovani axenic amastigotes (amphotericin B, positive control=0.38 μM). Cytotoxicity was verified against Vero cells.

Vero cells = assay: Cytotoxicity against Vero cells; type: cell-based; conditions: for IC50: cytotoxicity, read-out: IC50 Values Vero Cell
Protocol: as §1

[2] = axenic amastigotes, read-out: IC50 Values Leishmania donovani

Compound	IC50 [1, 2] [µM]	IC50 (Vero cells) [µM]	other results
CO[C@H]1OC(=O)[C@H](C)c2c([C@@]3(C)CCCC(C)(C)C3)ccc(C=O)c21 [Membranolide B, membranolide B]	58.1	44.3	
CO[C@@H]1O[C@@H](OC)c2c1ccc([C@@]1(C)CCCC(C)(C)C1)c2[C@@H](C)C(=O)O [Membranolide C, membranolide C]	> 53.1	40.7	
CO[C@@H]1O[C@@H](OC)c2c1ccc([C@@]1(C)CCCC(C)(C)C1)c2[C@@H](C)C(=O)O [Membranolide D, membranolide D]			IC50 ([1]; Leishmania donovani, axenic amastigotes): > 53.1 µM; IC50 (Vero cells; Chlorocebus sabaeus): 40.7 µM
CC(=O)O[C@@H]1OC2OC(=O)[C@H](C)C3=C([C@@]4(C)CCCC(C)(C)C4)CCC1C32 (stereo partly drawn) [Tetrahydroaplysulphurin, tetrahydroaplysulphurin]	17.3	53.3	
C[C@@H]1[C@H](O)[C@@H](C)/C=C/C=C/C=C/C=C/C=C/C=C/C=C/[C@H](O[C@@H]2O[C@H](C)[C@@H](O)[C@H](N)[C@@H]2O)C[C@@H]2O[C@](O)(C[C@@H](O)C[C@@H](O)[C@H](O)CC[C@@H](O)C[C@@H](O)CC(=O)O[C@H]1C)C[C@H](O)[C@H]2C(=O)O [amphotericin B, reference compound]	0.38		
aplysulphurin	1.56	47.7	selectivity index (cytotoxicity/activity) [1]: high selectivity index
membranolide A		> 58.1	IC50 Values Leishmania donovani ([1]; axenic amastigotes): Inactive
membranolide F	26.7	42.4	
membranolide G	0.82	> 53.1	activity against L. donovani (in words) [1]: potent activity; cytotoxicity (in words) (Vero cells): lacking significant cytotoxicity
membranolide H	1.14	> 53.1	activity against L. donovani (in words) [1]: potent activity; cytotoxicity (in words) (Vero cells): lacking significant cytotoxicity
